Laboratory results reported in PMC12040169 (PLOS Biology, 2025).

Test: in vitro
Conditions: human, hela cells, % viability

| Structure (SMILES) | viability at 28.5 h, 10 µM [%] | viability at 28.5 h, 10 µM (bulk resorufin, single well) [%] |
| --- | --- | --- |
| CSCCN1CCC2(CC1)CN(C(=O)C(C)C)c1ccccc12 [CBK131473] | 101 |  |
| Cc1nc(CN2CCC3(CC2)CN(C(=O)C(C)C)c2ccccc23)cs1 [CBK131476] | 108 |  |
| CCN1CC2(CCN(Cc3cc(OC)c(OC)c(OC)c3)CC2)c2ccccc21 [CBK131477] | 93.2 |  |
| CCN1CC2(CCN(CCCn3c(=O)[nH]c4ccccc43)CC2)c2ccccc21 [CBK131483] | 93.7 |  |
| O=C(CO)N1CC2(CCN(Cc3ccc(OC(F)(F)F)cc3)CC2)c2ccccc21 [CBK131493] | 106 |  |
| COc1cc(CN2CCC3(CC2)CN(C(=O)CO)c2ccccc23)cc(OC)c1OC [CBK131494] | 94 |  |
| O=C(CO)N1CC2(CCN(CCc3c[nH]c4ccccc34)CC2)c2ccccc21 [CBK131503] | 98.5 |  |
| O=C(CO)N1CC2(CCN(CCS(=O)(=O)c3ccccc3)CC2)c2ccccc21 [CBK131505] | 97.9 |  |
| O=C(CO)N1CC2(CCN(CCCn3c(=O)[nH]c4ccccc43)CC2)c2ccccc21 [CBK131506] | 91.9 |  |
| O=C(CN1CCC2(CC1)CN(C(=O)CO)c1ccccc12)Nc1ccc(F)c(Cl)c1 [CBK131509] | 92.3 |  |
| O=C(CO)N1CC2(CCN(Cc3cc(=O)[nH]c(=O)[nH]3)CC2)c2ccccc21 [CBK131510] | 106 |  |
| COc1ccc(OCCN2CCC3(CC2)CN(C(=O)CO)c2ccccc23)cc1 [CBK131512] | 103 |  |
| Cc1nc(CN2CCC3(CC2)CN(C(=O)CO)c2ccccc23)cs1 [CBK131523] | 93.5 |  |
| COc1cc(CN2CCC3(CC2)CN(CCO)c2ccccc23)cc(OC)c1OC [CBK131524] | 94.9 |  |
| OCCN1CC2(CCN(Cc3cccc(Oc4ccccc4)c3)CC2)c2ccccc21 [CBK131528] | 88.7 |  |
| CSCCC(=O)N1CCCC2(CCN(C(=O)c3cc(F)c(F)cc3F)C2)C1 (centres unmarked) [CBK131557] | 93.7 |  |
| Cc1ccc(S(=O)(=O)CC(=O)N2CCCC3(CCN(C(=O)c4cc(F)c(F)cc4F)C3)C2)cc1 (centres unmarked) [CBK131558] | 99 |  |
| COc1ccc2[nH]cc(CC(=O)N3CCCC4(CCN(C(=O)c5cc(F)c(F)cc5F)C4)C3)c2c1 (centres unmarked) [CBK131562] | 88.6 |  |
| O=C(c1cncnc1)N1CCCC2(CCN(C(=O)c3cc(F)c(F)cc3F)C2)C1 (centres unmarked) [CBK131564] | 106 |  |
| O=C(c1ccc2[nH]c(=O)[nH]c2c1)N1CCCC2(CCN(C(=O)c3cc(F)c(F)cc3F)C2)C1 (centres unmarked) [CBK131566] | 106 |  |

| Structure (SMILES) | viability at 28.5 h, 10 µM [%] | viability at 28.5 h, 10 µM (bulk resorufin, single well) [%] |
| --- | --- | --- |
| O=C(O)CCC(=O)N1CCCC2(CCN(C(=O)Cc3c[nH]c4ccccc34)C2)C1 (centres unmarked) [CBK131572] | 91.2 |  |
| N#Cc1cccc(C(=O)N2CCCC3(CCN(C(=O)Cc4c[nH]c5ccccc45)C3)C2)c1 (centres unmarked) [CBK131581] | 93.4 |  |
| O=C(Cc1c[nH]c2ccccc12)N1CCC2(CCCN(C(=O)c3cscn3)C2)C1 (centres unmarked) [CBK131590] | 99.1 |  |
| Cc1ccc(S(=O)(=O)CC(=O)N2CCCC3(CCN(C(=O)Cc4c[nH]c5ccccc45)C3)C2)cc1 (centres unmarked) [CBK131595] | 90.4 |  |
| COc1cc(C(=O)N2CCCC3(CCN(C(=O)Cc4c[nH]c5ccccc45)C3)C2)cc(OC)c1OC (centres unmarked) [CBK131601] | 96 |  |
| O=C(Cc1c[nH]c2ccccc12)N1CCC2(CCCN(C(=O)c3c(F)cccc3F)C2)C1 (centres unmarked) [CBK131605] | 85.8 |  |
| O=C(COc1cccnc1)N1CCCC2(CCN(C(=O)Cc3c[nH]c4ccccc34)C2)C1 (centres unmarked) [CBK131608] | 105 |  |
| Cc1cn(CC(=O)N2CCCC3(CCN(C(=O)c4ccoc4)C3)C2)c(=O)[nH]c1=O (centres unmarked) [CBK131634] | 104 |  |
| O=C(c1cccnc1)N1CCCC2(CCN(C(=O)c3ccoc3)C2)C1 (centres unmarked) [CBK131640] | 97 |  |
| COc1ccc(C(=O)N2CCC3(CCCN(C(=O)Cc4ccc(Cl)c(Cl)c4)C3)C2)cc1OC (centres unmarked) [CBK131654] | 98.1 |  |
| COc1ccc(C(=O)N2CCC3(CCCN(C(=O)c4ccc5ncccc5c4)C3)C2)cc1OC (centres unmarked) [CBK131656] | 92.4 |  |
| COc1ccc2[nH]cc(CC(=O)N3CCCC4(CCN(C(=O)c5ccc(OC)c(OC)c5)C4)C3)c2c1 (centres unmarked) [CBK131666] | 81.1 |  |
| CCOC(=O)N1CCC2(CC1)OCc1ccc(C#N)cc1O2 [CBK131679] |  | 97.2 |
| O=C(O)CC1SC(Nc2cccc(Cl)c2)=NC1=O (centres unmarked) [CBK131683] | 105 |  |
| N#Cc1c(-c2ccccc2)cc(-c2ccccc2)nc1SCC(=O)O [CBK131684] | 92.6 |  |
| O=C(O)CSc1nnc(-c2ccc3c(c2)OCO3)n1-c1ccccc1 [CBK131690] | 105 |  |
| COc1ccc(-c2nc(Nc3cccc(C(F)(F)F)c3)sc2CC(=O)O)cc1OC [CBK131693] | 97.9 |  |
| O=C(CSCc1ccc(Cl)cc1)Nc1ccc(O)cc1C(=O)O [CBK131694] | 97.1 |  |
| COc1cc(-c2nnc(SCC(=O)O)n2-c2ccccc2)cc(OC)c1OC [CBK131695] | 104 |  |
| CC(=O)Nc1ccc(NC(=O)CSCc2ccc(Cl)cc2Cl)cc1 [CBK131696] | 96.4 |  |

| Structure (SMILES) | viability at 28.5 h, 10 µM [%] | viability at 28.5 h, 10 µM (bulk resorufin, single well) [%] |
| --- | --- | --- |
| O=C(CCCc1ccccc1)Nc1ccc(O)cc1C(=O)O [CBK131699] | 99.7 |  |
| O=C(CSCc1ccc(Cl)cc1Cl)Nc1cccc(O)c1 [CBK131702] | 110 |  |
| Cc1ccc(SCC(=O)Nc2ccc(O)cc2C(=O)O)cc1 [CBK131703] | 118 |  |
| Cc1c(NC(=O)CSCc2ccc(Cl)cc2Cl)cccc1C(=O)O [CBK131704] | 104 |  |
| COc1ccc(Nc2nc(-c3ccc(F)cc3)cs2)c(OC)c1 [CBK131705] | 87.5 |  |
| O=C(CSCc1ccc([N+](=O)[O-])cc1)Nc1ccc(O)cc1C(=O)O [CBK131710] | 89.4 |  |
| NS(=O)(=O)c1ccc(C(=O)N2CCC3(CCN(C(=O)c4ccoc4)C3)C2)cc1 (centres unmarked) [CBK131736] | 95.2 |  |
| O=C(c1cncnc1)N1CCC2(CCN(C(=O)c3ccoc3)C2)C1 (centres unmarked) [CBK131755] | 86.2 |  |
| COc1ccc(C(=O)N2CCC3(CCN(C(=O)Cc4c[nH]cn4)C3)C2)cc1OC (centres unmarked) [CBK131768] | 107 |  |
| COc1ccc(C(=O)N2CCC3(CCN(C(=O)CC4CCCCC4)C3)C2)cc1OC (centres unmarked) [CBK131770] | 94.7 |  |
| COc1ccc(C(=O)N2CCC3(CCN(C(=O)c4cccc(C#N)c4)C3)C2)cc1OC (centres unmarked) [CBK131773] | 98.3 |  |
| COc1ccc(C(=O)N2CCC3(CCN(C(=O)/C=C/c4ccc5c(c4)OCO5)C3)C2)cc1OC (centres unmarked) [CBK131775] | 96.6 |  |
| COc1ccc(C(=O)N2CCC3(CCN(C(=O)Cc4cc(C)no4)C3)C2)cc1OC (centres unmarked) [CBK131784] | 106 |  |
| COc1ccc(OC(=O)C2COc3ccccc3O2)cc1 (centres unmarked) [CBK131816] | 100 |  |
| CS(=O)(=O)c1ccc(Nc2cncc(N3CCC(Sc4ccccn4)CC3)c2C#N)cc1 [CBK131843] | 85.2 |  |
| CCOC(=O)c1sc2nc(N3CCOCC3)c3c(c2c1N)CCCC3 [CBK131870] | 100 |  |
| CCc1nc2sc(C(N)=O)c(N)c2c2c1CCCC2 [CBK131872] | 101 |  |
| COc1ccc(CSc2nc(N)c3c4c(sc3n2)CCCC4)cc1 [CBK131876] | 85.8 |  |
| COc1ccc(-c2c3c(nc4sc(C(=O)N5CCOCC5)c(N)c24)CC(C)(C)CC3=O)cc1 [CBK131884] | 91.7 |  |
